Assays:
HIV-1 NL4-3 [1] = test: microbe, parasite or virus in culture
Method: (§1) Virus and cell lines. The T-cell line, MT-2 was obtained through the AIDS Research and Reference Reagent Program, NIAID and was contributed by Dr. D. Richman. The cell line was cultured in RPMI 1640 medium supplemented with 10% fetal bovine serum, 2 mM L-glutamine and sub-cultured twice a week. The NL4-3 strain of HIV-1 was obtained from the AIDS Research and Reference Reagent Program. Both virus stocks were amplified and titered in MT-2 cells using a virus infectivity assay.
(§2) Drug Susceptibility and Cytotoxicity Assays. For drug susceptibility assays, MT-2 cells were infected with HIV-1 NL4-3 at an MOI of 0.001, and seeded into 96-well microtiter plates (2.5×10^5 cells/ml) containing serial dilutions of test compounds. […] Each drug ratio consisted of an array of 3-fold serial dilutions, and was performed in quadruplicate. The plates were incubated at 37° C./5% CO2. The MT-2 cells infected with HIV-1 NL4-3 were incubated for 5 days. On day-five post-infection, 20 μl from each well was harvested and quantitated by a reverse transcriptase (RT) assay or an MTS assay. Cytotoxicity assays were performed using uninfected cells, exposed to the same drug combinations, and incubated for five days. Cell viability was determined by an XTT assay. The CC50 values were calculated by using the exponential form of the median effect equation as mentioned below for calculation of EC50.
(§3) In this equation, Fa stands for “fraction affected,” and represents the fraction of the viral load that has been inactivated.
In carrying out the combination experiments below, the EC50 for Compound 1 and each comparator compound was determined during the course of each study, and used in the subsequent data analysis.

HIV-1 NL4-3 [2] = test: Two-drug combination study with Compound 1 (combination indices); assay type: cell-based; conditions: for Combination Indices at 50% HIV Inhibition (Confidence Interval) / Combination Indices at 75% HIV Inhibition (Confidence Interval) / Combination Indices at 90% HIV Inhibition (Confidence Interval): 95% CI in parentheses; for Overall Result: overall antiviral effect of the two-drug combination with Compound 1, all ratios and effective levels
Method: as §1, §2
Analysis of Drug Combination Effects. For determination of CI values, drugs were diluted in a fixed ratio and multiple ratios were analyzed. The drug serial dilutions spanned a range of concentrations near the EC50 value of each compound, so that equivalent antiviral activities could be compared. Concentration-response curves were estimated for each individual drug and every combination using the median-effect equation. The equation was fit using a nonlinear regression routine (Proc Nlin) in PC SAS version 8.01 (SAS Institute Inc., SAS Version 8.01, Cary, N.C.: SAS Institute Inc., 1990).
as §3
To assess antiviral effects of different drug combination treatments, combination indices (CIs) were calculated according to Chou and Rideout. The combination index was computed as CI=[D]1/[Dm]1+[D]2/[Dm]2
In this equation [Dm]1 and [Dm]2 are the concentrations of drugs that would individually produce a specific level of effect, while [D]1 and [D]2 are the concentrations of drugs in combination that would produce the same level of effect.
Theoretically, additivity is implied if the CI is equal to one, synergy if the CI is less than one, and antagonism if the CI is greater than one. […] At best, we can construct a range that contains the likely values for the CI, given the noise in the data. In this report, these ranges are reported in parentheses next to each point estimate of the CI. […] If the range fell entirely above 1.0, we would infer antagonistic behavior. If the range were to include 1.0, we would infer additivity.

[3] = Human immunodeficiency virus 1, NL43, MT2, 120 h
[4] = combination with Compound 1, EC50 ratio 1:1 (Compound 1:comparator)
[5] = combination with Compound 1, EC50 ratio 1:2.5 (Compound 1:comparator)
[6] = combination with Compound 1, EC50 ratio 2.5:1 (Compound 1:comparator)

Compound	EC50 (HIV-1 NL4-3 [1]; [3]) [nM]	Combination Indices at 50% HIV Inhibition (Confidence Interval) (HIV-1 NL4-3 [2]; [4])	Combination Indices at 75% HIV Inhibition (Confidence Interval) (HIV-1 NL4-3 [2]; [4])	Combination Indices at 90% HIV Inhibition (Confidence Interval) (HIV-1 NL4-3 [2]; [4])	Combination Indices at 50% HIV Inhibition (Confidence Interval) (HIV-1 NL4-3 [2]; [5])	Combination Indices at 75% HIV Inhibition (Confidence Interval) (HIV-1 NL4-3 [2]; [5])	Combination Indices at 90% HIV Inhibition (Confidence Interval) (HIV-1 NL4-3 [2]; [5])	Combination Indices at 50% HIV Inhibition (Confidence Interval) (HIV-1 NL4-3 [2]; [6])	Combination Indices at 75% HIV Inhibition (Confidence Interval) (HIV-1 NL4-3 [2]; [6])	Combination Indices at 90% HIV Inhibition (Confidence Interval) (HIV-1 NL4-3 [2]; [6])	Overall Result (HIV-1 NL4-3 [2])	Overall Result (HIV-1 NL4-3 [2]; listed as zalcitabine)	Overall Result (HIV-1 NL4-3 [2]; listed as zidovudine)	EC50 (HIV-1 NL4-3 [1]; NL4-3) [nM]	Overall Result (HIV-1 NL4-3 [2]; listed as T-20)
Nc1ccn([C@H]2CC[C@@H](CO)O2)c(=O)n1 [Zalcitabine, zalcitabine]	120	0.79 (0.64, 0.94)	0.75 (0.55, 0.96)	0.72 (0.42, 1.02)	0.83 (0.70, 0.95)	0.70 (0.56, 0.85)	0.60 (0.41, 0.80)	0.85 (0.75, 0.95)	0.72 (0.61, 0.84)	0.61 (0.46, 0.77)	Synergistic	synergistic			
Cc1cn([C@H]2C[C@H](N=[N+]=[N-])[C@@H](CO)O2)c(=O)[nH]c1=O [Zidovudine, zidovudine]	2	0.21 (0.16, 0.26)	0.15 (0.10, 0.20)	0.12 (0.06, 0.18)	0.33 (0.26, 0.40)	0.23 (0.16, 0.29)	0.16 (0.09, 0.24)	0.21 (0.18, 0.24)	0.16 (0.12, 0.19)	0.13 (0.08, 0.17)	Synergistic		synergistic		
enfuvirtide		0.74 (0.58, 0.89)	0.95 (0.67, 1.24)	1.25 (0.66, 1.83)	0.72 (0.55, 0.89)	0.69 (0.46, 0.91)	0.68 (0.33, 1.02)	1.04 (0.82, 1.27)	0.95 (0.66, 1.24)	0.87 (0.45, 1.29)	Additive-			7	synergistic to additive
